The results in this text go back to ChEMBL document CHEMBL6103586, “Optimization of pyrazole/1,2,4-triazole as dual EGFR/COX-2 inhibitors: Design, synthesis, anticancer potential, apoptosis induction and cell cycle analysis” (Eur J Med Chem, 2025).

pIC50: −log10 of the molar value.

In assay [1] the test system is MCF7. The assay can be described thus: Cytotoxicity against human MCF7 cells assessed as cell growth inhibition measured after 24 hrs by spectrophotometry based MTT assay. Type of assay: functional. To be noted: MCF7, 24 h. (Tetrazolium dyes change colour on reduction, which living cells bring about.)
The test system of a further assay is A549. The assay can be described thus: Cytotoxicity against human A549 cells assessed as cell growth inhibition measured after 24 hrs by spectrophotometry based MTT assay. Type of assay: functional. As to conditions: A549, 24 h.
In the next assay the test system is HT-29. As to the kind of experiment: Cytotoxicity against human HT-29 cells assessed as cell growth inhibition measured after 24 hrs by spectrophotometry based MTT assay. Type of assay: functional. To be noted: HT-29, 24 h.
The target of assay [2] is Epidermal growth factor receptor (Homo sapiens, UniProt P00533, T790M). As to the kind of experiment: Inhibition of human EGFR T790M mutant by Kinase-Glo assay.
In assay [3] the target is Epidermal growth factor receptor (Homo sapiens, UniProt P00533). As to the kind of experiment: Inhibition of human wild-type EGFR by Kinase-Glo assay.
Assay [4] addresses Prostaglandin G/H synthase 1 (Homo sapiens, UniProt P23219).
Description: Inhibition of COX-1 (unknown origin) using arachidonic acid as substrate by fluorescence based analysis
Assay [5] concerns MCF7. The assay can be described thus: Induction of apoptosis in human MCF7 cells assessed as total apoptotic cells at 1.207 uM incubated for 24 hrs by Annexin V-FITC/PI staining based flow cytometry analysis (reference value: 2.51%). Type of assay: functional.
In assay [6] the test system is MCF7. As to the kind of experiment: Induction of apoptosis in human MCF7 cells assessed as late apoptotic cells at 1.207 uM incubated for 24 hrs by Annexin V-FITC/PI staining based flow cytometry analysis (reference value: 0.11%). The class given is functional. On the technique in general: A flow cytometer gives signals particle by particle.
Assay [7] concerns MCF7. As to the kind of experiment: Induction of apoptosis in human MCF7 cells assessed as early apoptotic cells at 1.207 uM incubated for 24 hrs by Annexin V-FITC/PI staining based flow cytometry analysis (reference value: 0.36%). The class given is functional.
The test system of assay [8] is MCF7. As to the kind of experiment: Induction of apoptosis in human MCF7 cells assessed as necrotic cells at 1.207 uM incubated for 24 hrs by Annexin V-FITC/PI staining based flow cytometry analysis (reference value: 2.04%). The class given is functional.
The subject of assay [9] is MCF7. The assay can be described thus: Induction of cell cycle arrest in human MCF-7 cells assessed as accumulation of cells at G2/M phase cells at 1.207 uM incubated for 24 hrs by propidium iodide based flow cytometry analysis (reference value: 9.87%). The class given is functional.
The test system of assay [10] is MCF7. As to the kind of experiment: Induction of cell cycle arrest in human MCF-7 cells assessed as accumulation of cells at G0/G1 phase cells at 1.207 uM incubated for 24 hrs by propidium iodide based flow cytometry analysis (reference value: 66.25%). Type of assay: functional.
The subject of assay [11] is MCF7. As to the kind of experiment: Induction of cell cycle arrest in human MCF-7 cells assessed as accumulation of cells at S phase cells at 1.207 uM incubated for 24 hrs by propidium iodide based flow cytometry analysis (reference value: 23.88%). Type of assay: functional.

Chain of Epidermal growth factor receptor (Homo sapiens, UniProt P00533) (P00533 whole entry): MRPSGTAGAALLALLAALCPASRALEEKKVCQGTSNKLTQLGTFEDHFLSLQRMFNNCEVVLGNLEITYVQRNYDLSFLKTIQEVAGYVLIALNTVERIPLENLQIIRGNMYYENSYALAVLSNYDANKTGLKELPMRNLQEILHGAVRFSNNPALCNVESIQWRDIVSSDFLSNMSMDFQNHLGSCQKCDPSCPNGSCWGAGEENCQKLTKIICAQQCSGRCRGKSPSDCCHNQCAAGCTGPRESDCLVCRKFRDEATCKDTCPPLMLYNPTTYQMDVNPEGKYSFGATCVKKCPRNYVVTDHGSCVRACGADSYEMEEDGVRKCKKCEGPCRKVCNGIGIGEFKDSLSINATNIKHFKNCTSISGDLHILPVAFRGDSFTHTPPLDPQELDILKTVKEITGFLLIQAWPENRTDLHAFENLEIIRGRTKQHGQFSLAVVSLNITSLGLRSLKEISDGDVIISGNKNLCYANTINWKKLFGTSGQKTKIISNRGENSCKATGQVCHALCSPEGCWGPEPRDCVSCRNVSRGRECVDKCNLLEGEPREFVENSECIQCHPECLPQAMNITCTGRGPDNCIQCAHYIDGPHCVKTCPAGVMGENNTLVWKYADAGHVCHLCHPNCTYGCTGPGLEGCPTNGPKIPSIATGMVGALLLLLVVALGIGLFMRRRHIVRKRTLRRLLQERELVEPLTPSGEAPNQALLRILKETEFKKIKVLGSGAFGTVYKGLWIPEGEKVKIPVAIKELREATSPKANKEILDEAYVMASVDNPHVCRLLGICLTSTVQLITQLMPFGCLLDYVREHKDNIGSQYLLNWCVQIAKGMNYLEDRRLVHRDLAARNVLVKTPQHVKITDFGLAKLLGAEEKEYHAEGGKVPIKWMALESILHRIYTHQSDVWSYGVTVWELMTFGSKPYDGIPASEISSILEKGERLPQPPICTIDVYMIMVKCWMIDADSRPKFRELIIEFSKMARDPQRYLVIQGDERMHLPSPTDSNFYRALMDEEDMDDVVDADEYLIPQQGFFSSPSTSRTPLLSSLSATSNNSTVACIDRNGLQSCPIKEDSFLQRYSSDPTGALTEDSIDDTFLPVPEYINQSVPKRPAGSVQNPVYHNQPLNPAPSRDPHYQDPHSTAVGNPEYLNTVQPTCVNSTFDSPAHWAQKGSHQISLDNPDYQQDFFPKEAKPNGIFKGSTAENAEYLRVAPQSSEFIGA
Chain of Prostaglandin G/H synthase 1 (P23219 whole entry): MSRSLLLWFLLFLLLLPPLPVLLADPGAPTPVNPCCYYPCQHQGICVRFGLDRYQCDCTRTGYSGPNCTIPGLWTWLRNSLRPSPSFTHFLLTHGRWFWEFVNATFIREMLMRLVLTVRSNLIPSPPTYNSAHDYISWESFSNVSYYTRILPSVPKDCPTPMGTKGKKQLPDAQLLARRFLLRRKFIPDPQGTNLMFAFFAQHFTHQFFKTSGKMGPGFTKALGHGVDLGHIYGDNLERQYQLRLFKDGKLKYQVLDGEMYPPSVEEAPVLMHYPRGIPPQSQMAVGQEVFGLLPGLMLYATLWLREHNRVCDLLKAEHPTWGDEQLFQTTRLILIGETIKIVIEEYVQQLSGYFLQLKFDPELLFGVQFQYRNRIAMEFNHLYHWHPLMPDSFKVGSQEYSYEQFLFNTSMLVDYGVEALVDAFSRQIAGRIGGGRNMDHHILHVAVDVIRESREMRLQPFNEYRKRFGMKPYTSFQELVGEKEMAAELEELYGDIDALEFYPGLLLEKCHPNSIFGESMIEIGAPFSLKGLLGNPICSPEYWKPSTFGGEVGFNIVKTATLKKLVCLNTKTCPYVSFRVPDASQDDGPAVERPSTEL
Chain of Epidermal growth factor receptor (Homo sapiens, UniProt P00533, T790M) (P00533 25-1210 T790M limits assumed): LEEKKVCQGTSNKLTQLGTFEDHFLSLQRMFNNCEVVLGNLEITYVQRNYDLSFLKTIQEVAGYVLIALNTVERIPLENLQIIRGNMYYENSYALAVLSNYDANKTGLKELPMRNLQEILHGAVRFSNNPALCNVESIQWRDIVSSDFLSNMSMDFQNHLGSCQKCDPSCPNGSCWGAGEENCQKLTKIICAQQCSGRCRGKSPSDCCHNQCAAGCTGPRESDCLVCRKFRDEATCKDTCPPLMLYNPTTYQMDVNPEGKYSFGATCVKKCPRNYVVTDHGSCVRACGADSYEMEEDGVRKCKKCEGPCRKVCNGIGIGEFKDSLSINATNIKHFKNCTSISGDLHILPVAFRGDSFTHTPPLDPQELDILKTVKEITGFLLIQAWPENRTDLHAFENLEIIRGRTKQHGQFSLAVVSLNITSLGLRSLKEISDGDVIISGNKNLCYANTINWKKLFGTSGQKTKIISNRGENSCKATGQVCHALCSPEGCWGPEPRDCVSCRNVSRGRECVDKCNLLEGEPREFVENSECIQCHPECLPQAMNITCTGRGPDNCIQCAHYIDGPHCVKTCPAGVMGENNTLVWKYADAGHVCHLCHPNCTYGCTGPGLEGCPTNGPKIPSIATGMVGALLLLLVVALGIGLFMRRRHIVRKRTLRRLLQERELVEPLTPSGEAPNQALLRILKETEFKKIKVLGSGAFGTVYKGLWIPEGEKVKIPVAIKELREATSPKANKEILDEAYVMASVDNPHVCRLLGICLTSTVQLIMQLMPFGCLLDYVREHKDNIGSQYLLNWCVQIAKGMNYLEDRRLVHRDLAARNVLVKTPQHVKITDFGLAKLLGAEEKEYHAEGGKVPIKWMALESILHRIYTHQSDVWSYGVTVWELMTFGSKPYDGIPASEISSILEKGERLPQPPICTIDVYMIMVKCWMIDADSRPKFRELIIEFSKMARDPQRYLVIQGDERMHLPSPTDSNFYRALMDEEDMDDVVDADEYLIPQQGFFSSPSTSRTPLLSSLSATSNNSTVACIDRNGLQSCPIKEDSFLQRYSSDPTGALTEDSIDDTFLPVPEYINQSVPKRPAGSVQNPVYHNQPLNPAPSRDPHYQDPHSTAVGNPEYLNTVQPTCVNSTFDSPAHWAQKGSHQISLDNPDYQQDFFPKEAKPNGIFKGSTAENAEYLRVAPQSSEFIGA

Usually pIC50 stands for the IC50 on a negative log10 scale, so that one unit is a factor of ten. Take `COc1cccc(C=Nn2c(S)nnc2-c2cnn(-c3ccc(S(C)(=O)=O)cc3)c2C)c1OC`: the pIC50 in the assay with MCF7 [1] was 4.66; in the assay with A549, 4.87; with HT-29, 4.55.
Take `Cc1c(-c2nnc(S)n2N=Cc2ccc([N+](=O)[O-])cc2)cnn1-c1ccc(S(C)(=O)=O)cc1`: the pIC50 in the assay with MCF7 [1] was 5.31; with A549 it was 5.31; in the assay on HT-29, 4.89.
In the case of `COc1cc(C=Nn2c(S)nnc2-c2cnn(-c3ccccc3)c2C)cc(OC)c1OC`, the pIC50 in the assay with MCF7 [1] is 4.48; with A549 it was 4.76; in the assay on HT-29 it was 4.65.
The matching figures for `Cc1c(-c2nnc(S)n2N=Cc2ccc(N(C)C)cc2)cnn1-c1ccc(S(C)(=O)=O)cc1`: 4.98, 4.50 and 4.86.
As for `Cc1ccc(-c2cc(C(F)(F)F)nn2-c2ccc(S(N)(=O)=O)cc2)cc1` [CELECOXIB], the values for the pIC50 with MCF7 [1], in the assay on A549 and in the assay with HT-29 were 4.78, 4.66 and 4.38, respectively.
The matching figures for `COc1cc(C=Nn2c(S)nnc2-c2cnn(-c3ccc(S(C)(=O)=O)cc3)c2C)cc(OC)c1OC`: 4.31, 4.44 and 4.29.
The matching figures for `COc1cccc(C=Nn2c(S)nnc2-c2cnn(-c3ccccc3)c2C)c1OC`: 4.38, 4.83 and 4.13.
Turning to `Cc1c(-c2nnc(S)n2N=Cc2ccc([N+](=O)[O-])cc2)cnn1-c1ccccc1`, the figures for the pIC50 in the assay on MCF7 [1], in the assay with A549 and with HT-29 were 4.89, 5.20 and 4.97, respectively.
`Cc1c(-c2nnc(S)n2N=Cc2ccc(F)cc2)cnn1-c1ccccc1`: the values for the pIC50 in the assay with MCF7 [1], in the assay with A549 and in the assay with HT-29 were 4.77, 5.14 and 4.92, respectively.
`COc1ccc(C=Nn2c(S)nnc2-c2cnn(-c3ccc(S(C)(=O)=O)cc3)c2C)cc1OC`: the pIC50 in assay [2] was 6.87; with MCF7 [1], 5.29; in assay [3], 6.67; with A549 it was 5.62; in the assay with HT-29, 5.03; in assay [4], 4.84.
On to `Cc1c(-c2nnc(S)n2N=Cc2ccc(F)cc2)cnn1-c1ccc(S(C)(=O)=O)cc1`, for which the pIC50 in [2] was 7.12; with MCF7 [1], 5.92; in [3] it was 6.92; in the assay on A549, 4.83; with HT-29, 5.29; in assay [4], 4.70. Besides, the Activity is given as 38.67% in the assay with MCF7 [5]; 9.57% in the assay with MCF7 [6]; 22.81% in the assay on MCF7 [7]; 6.29% in the assay on MCF7 [8]; 39.15% in the assay on MCF7 [9]; 47.64% in the assay on MCF7 [10]. In addition, in the assay with MCF7 [11], the Activity was 13.21%.
Regarding `Cc1c(-c2nnc(S)n2N=Cc2ccc(N(C)C)cc2)cnn1-c1ccccc1`, the pIC50 is 6.12 in assay [2]; 5.13 with MCF7 [1]; 6.37 in [3]; 5.42 with A549; 5.53 with HT-29; 4.44 in assay [4].
Consider `C=CC(=O)Nc1cc(Nc2nccc(-c3cn(C)c4ccccc34)n2)c(OC)cc1N(C)CCN(C)C` [OSIMERTINIB], for which the pIC50 in the assay on MCF7 [1] was 5.46; with A549, 5.78; in the assay with HT-29, 6.12.
For `COc1ccc(C=Nn2c(S)nnc2-c2cnn(-c3ccccc3)c2C)cc1OC`, the pIC50 in the assay with MCF7 [1] was 4.69; in the assay on A549, 4.73; in the assay with HT-29 it was 4.88.
